Assay results published in US20250230125A1 (The Board of Regents of The University of Texas System, priority 2022, published 2025).

Key:
5-HT3 = molecular target: T1, 5-HT3 (Homo sapiens, UniProt P46098); test: NIMH PDSP radioligand binding displacement, 5-HT3; settings: radioligand [^3H]-LY278584
T1 sequence (P46098 24-478): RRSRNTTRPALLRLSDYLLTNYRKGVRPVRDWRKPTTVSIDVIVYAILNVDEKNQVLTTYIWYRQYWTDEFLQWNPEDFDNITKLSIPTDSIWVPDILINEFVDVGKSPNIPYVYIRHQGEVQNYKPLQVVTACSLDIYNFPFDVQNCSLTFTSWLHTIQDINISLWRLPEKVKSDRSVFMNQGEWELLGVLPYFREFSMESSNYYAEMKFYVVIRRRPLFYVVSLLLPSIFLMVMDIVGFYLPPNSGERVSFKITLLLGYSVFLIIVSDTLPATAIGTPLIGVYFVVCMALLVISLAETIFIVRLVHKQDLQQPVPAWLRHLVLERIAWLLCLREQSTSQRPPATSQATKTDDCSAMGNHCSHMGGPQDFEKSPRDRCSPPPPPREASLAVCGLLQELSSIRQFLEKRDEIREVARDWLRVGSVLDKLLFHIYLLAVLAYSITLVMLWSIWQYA
From the text: . To explore the off-target profile of the two compounds, the National Institute of Mental Health (NIMH) Psychoactive Drug Screening Program (PDSP) were utilized to assess in a broad-panel of GPCRs and monoamine transporters (Table 4). […]. [table]

hMDRI-MDCKII cells = test: MDCK-MDR1 membrane permeability and efflux; format: in vitro ADME
[1] = Rat liver microsomal intrinsic clearance; format: in vitro ADME; settings: rat liver microsomes
CYP3A4 [2] = molecular target: T2, CYP3A4 (Homo sapiens, UniProt P08684); settings: microsomes, 10 µM
T2 sequence (P08684 whole entry): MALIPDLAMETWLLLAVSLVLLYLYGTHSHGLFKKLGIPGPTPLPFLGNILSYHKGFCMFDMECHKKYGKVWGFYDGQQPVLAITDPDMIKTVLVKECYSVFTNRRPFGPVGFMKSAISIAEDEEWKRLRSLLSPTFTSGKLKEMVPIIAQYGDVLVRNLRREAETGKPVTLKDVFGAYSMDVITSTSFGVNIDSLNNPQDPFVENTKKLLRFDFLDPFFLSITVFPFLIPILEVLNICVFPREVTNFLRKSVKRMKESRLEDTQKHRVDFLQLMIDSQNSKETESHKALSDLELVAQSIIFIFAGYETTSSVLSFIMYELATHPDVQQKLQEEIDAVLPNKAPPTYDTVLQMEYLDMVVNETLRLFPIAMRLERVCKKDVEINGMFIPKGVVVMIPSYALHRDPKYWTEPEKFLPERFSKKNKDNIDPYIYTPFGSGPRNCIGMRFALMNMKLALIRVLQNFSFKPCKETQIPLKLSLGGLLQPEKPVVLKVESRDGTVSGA

CYP2B6 [3] = molecular target: T3, CYP2B6 (Homo sapiens, UniProt P20813); settings: microsomes, 10 µM
T3 sequence (P20813 1-491): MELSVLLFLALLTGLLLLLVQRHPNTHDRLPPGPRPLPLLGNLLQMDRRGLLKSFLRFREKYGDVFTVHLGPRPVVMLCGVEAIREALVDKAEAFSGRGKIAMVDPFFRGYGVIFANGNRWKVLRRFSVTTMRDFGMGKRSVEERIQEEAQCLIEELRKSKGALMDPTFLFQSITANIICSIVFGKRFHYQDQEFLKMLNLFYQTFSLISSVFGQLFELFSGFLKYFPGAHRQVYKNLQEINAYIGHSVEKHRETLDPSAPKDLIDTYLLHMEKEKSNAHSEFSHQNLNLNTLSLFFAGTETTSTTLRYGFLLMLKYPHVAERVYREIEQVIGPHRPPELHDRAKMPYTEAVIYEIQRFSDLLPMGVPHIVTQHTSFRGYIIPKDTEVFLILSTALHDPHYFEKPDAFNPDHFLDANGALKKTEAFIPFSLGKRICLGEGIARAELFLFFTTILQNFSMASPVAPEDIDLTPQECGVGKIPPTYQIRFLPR

CYP2C8 [4] = molecular target: T4, CYP2C8 (Homo sapiens, UniProt P10632); settings: microsomes, 10 µM
T4 sequence (P10632 1-490): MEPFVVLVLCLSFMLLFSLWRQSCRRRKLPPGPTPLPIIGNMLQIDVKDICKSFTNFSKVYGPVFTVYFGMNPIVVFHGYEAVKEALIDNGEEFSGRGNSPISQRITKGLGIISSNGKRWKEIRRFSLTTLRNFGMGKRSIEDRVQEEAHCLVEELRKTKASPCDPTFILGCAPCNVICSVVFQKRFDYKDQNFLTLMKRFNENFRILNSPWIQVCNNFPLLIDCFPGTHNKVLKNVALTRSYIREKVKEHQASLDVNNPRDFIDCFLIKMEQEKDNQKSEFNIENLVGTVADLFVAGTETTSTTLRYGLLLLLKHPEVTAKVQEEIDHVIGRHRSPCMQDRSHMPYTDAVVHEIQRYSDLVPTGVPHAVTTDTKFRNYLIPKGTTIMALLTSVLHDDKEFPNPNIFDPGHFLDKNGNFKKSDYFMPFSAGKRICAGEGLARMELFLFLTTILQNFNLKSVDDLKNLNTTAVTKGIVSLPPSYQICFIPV

CYP2C9 [5] = molecular target: T5, CYP2C9 (Homo sapiens, UniProt P11712); settings: microsomes, 10 µM
T5 sequence (P11712 whole entry): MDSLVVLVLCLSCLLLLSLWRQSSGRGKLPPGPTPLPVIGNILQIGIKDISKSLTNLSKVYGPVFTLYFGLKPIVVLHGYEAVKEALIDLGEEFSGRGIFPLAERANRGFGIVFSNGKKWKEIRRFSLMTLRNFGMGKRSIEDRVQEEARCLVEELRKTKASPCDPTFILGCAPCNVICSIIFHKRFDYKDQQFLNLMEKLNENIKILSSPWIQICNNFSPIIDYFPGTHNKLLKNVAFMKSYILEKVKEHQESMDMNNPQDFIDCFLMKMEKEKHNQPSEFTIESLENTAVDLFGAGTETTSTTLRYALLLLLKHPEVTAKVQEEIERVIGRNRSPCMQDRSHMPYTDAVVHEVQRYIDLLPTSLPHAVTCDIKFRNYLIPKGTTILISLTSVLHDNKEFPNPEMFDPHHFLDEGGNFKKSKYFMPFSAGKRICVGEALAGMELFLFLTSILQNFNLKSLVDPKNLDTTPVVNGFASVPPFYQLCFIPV

CYP2C19 [6] = molecular target: T6, CYP2C19 (Homo sapiens, UniProt P33261); settings: microsomes, 10 µM
T6 sequence (P33261 whole entry): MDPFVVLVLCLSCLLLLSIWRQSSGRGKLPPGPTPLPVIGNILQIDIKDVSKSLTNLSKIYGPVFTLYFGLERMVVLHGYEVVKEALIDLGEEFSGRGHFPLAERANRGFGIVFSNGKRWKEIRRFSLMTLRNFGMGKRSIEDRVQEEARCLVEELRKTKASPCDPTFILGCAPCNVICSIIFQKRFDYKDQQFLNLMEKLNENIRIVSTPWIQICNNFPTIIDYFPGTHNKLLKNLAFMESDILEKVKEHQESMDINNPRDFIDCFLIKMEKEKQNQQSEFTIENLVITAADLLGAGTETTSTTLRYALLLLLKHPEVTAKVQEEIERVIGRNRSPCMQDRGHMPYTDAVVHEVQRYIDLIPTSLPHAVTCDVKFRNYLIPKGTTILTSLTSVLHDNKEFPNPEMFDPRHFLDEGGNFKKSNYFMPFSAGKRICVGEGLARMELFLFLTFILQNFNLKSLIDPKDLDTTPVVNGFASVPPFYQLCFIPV

CYP2D6 [7] = molecular target: T7, CYP2D6 (Homo sapiens, UniProt P10635); settings: microsomes, 10 µM
T7 sequence (P10635 whole entry): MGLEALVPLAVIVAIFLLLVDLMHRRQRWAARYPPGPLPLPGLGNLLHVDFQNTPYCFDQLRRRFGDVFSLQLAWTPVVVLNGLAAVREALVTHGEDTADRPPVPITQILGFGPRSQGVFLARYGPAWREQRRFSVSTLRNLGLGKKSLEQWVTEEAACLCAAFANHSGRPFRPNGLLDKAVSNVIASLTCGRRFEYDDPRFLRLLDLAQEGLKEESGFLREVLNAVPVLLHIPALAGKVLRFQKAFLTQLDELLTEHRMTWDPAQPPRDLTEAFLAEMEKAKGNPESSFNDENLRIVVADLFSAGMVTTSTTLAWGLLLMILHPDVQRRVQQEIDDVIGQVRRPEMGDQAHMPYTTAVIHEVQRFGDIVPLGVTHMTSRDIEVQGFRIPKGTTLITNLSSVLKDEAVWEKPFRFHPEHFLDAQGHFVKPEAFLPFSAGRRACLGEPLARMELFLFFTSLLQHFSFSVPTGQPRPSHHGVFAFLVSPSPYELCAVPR

CYP3A4 [8] = molecular target: T2, CYP3A4; test: in vitro; settings: microsomes
CYP2B6 [9] = molecular target: T3, CYP2B6; test: in vitro; settings: microsomes
CYP2C8 [10] = molecular target: T4, CYP2C8; test: in vitro; settings: microsomes
CYP2C9 [11] = molecular target: T5, CYP2C9; test: in vitro; settings: microsomes
CYP2C19 [12] = molecular target: T6, CYP2C19; test: in vitro; settings: microsomes
CYP2D6 [13] = molecular target: T7, CYP2D6; test: in vitro; settings: microsomes
CYP1A2 = molecular target: T8, CYP1A2 (Homo sapiens, UniProt P05177); test: Human liver microsomes P450 inhibition, CYP1A2
T8 sequence (P05177 1-516): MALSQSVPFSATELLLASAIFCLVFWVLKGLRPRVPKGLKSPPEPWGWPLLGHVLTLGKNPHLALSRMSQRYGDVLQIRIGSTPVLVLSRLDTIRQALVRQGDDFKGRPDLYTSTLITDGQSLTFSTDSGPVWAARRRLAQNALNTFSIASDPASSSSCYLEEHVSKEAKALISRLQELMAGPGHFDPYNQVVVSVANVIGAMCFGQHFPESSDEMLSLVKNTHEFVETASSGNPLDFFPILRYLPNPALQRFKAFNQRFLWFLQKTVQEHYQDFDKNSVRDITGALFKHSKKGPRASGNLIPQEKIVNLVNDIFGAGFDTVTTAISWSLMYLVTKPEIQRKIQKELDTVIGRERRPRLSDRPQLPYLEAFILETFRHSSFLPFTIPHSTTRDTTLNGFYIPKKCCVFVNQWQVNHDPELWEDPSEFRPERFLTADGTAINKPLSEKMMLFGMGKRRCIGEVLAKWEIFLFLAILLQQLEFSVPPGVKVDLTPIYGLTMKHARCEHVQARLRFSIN

- inhibition at 10 µM (5-HT3): 5.63%
- PappB→A (hMDRI-MDCKII cells; With Pgp inhibitor): PappB→A = 4.77 × 10^−6 cm/s
- PappB→A (hMDRI-MDCKII cells; Without Pgp inhibitor): PappB→A = 3.23 × 10^−6 cm/s
- Liver microsomal clearance CLR [1]: CLR = 174.66 μL/min/mg
- Inhibitory % CYP3A4 (midazolam) (CYP3A4 [2]): 18.72%
- Inhibitory % CYP2B6 (CYP2B6 [3]): 53.31%
- Inhibitory % CYP2C8 (CYP2C8 [4]): 11.87%
- Inhibitory % CYP2C9 (CYP2C9 [5]): 21.2%
- Inhibitory % CYP2C19 (CYP2C19 [6]): 18.34%
- Inhibitory % CYP2D6 (CYP2D6 [7]): 10.13%
- inhibition at 10 µM (CYP3A4 [8]): < 20%
- inhibition at 10 µM (CYP2B6 [9]): > 50%
- inhibition at 10 µM (CYP2C8 [10]): < 20%
- inhibition at 10 µM (CYP2C9 [11]): < 20%
- inhibition at 10 µM (CYP2C19 [12]): < 20%
- inhibition at 10 µM (CYP2D6 [13]): < 20%
- Inhibitory % CYP1A2 (CYP1A2; 10 μM, human liver microsomes): 3.4%
- inhibition at 10 µM (CYP1A2; human, microsomes): < 20%
Compound: CCCCCCCC/C=C\CCCCCCCC(=O)NC(CO)(CO)CO [Compound 13, N-(1,3-dihydroxy-2-(hydroxymethyl)propan-2-yl)]
